Assays:
[1] = tested on: wild-type cell line, NFASC target; experiment: Genome editing of NFASC target with transient NHEJ/MMEJ/SSA inhibition in a wild-type cell line; type: cell-based; conditions: combination of 2 μM M3814, 320 pmol PoIQ siRNA aa765, PoIQ coding strand nicking, 5 μM 6-OH-dopa, 50 μM AICAR
Excerpt: FIG. 7: Inhibition of RAD52 dependent single strand annealing (SSA) together with MMEJ inhibition is needed to further increase HDR for rare targets with long stretches of homology. The NFASC target has an 11 bp stretch of homology. The first three bars show editing efficiencies in a wild-type cell line, a DNA-PKcs KR cell line leading to NHEJ inhibition, and a DNA-PKcs KR+PoIQ Knockout cell line leading to NHEJ and MMEJ inhibition. […] HDR, mix (HDR with indels), NHEJ, and estimated MMEJ/SSA (at least 2 bp microhomology) are indicated in green, light green, light blue, and light purple, respectively. Error bars show the SEM of at least two replicates and one experiment for the last bar.
In some cases the target for genome editing has long homology stretches around the cleavage site. […] We speculated that indel formation was carried out by the RAD52 dependent single strand annealing pathway (SSA) which uses long stretched of homology.

[2] = tested on: K562 cells expressing wild-type DNA-PKcs; experiment: Genome editing of FRMD7 with Cas9 in K562 cells, amplicon sequencing (HDR / precise genome editing efficiency); type: cell-based, human; conditions: for HDR-increasing effect / precise genome editing efficiency, comparison of DNA-PKcs inhibitors: K562 cells, Cas9 induced DSB, 2 μM and 20 μM
Experimental: Cells were grown at 37° C. in a humidified incubator gassed with 5% CO2.
The recombinant A.s. Cpf1 and S.p. Cas9 protein and electroporation enhancer was ordered from IDT (Coralville, USA) and nucleofection was done using the manufacturer's protocol, except for the following alterations. […] Cells were counted using the Countess Automated Cell Counter (Invitrogen).
Incubation at 65° C. for 10 min, 68° C. for 5 min and finally 98° C. for 5 min was performed to yield ssDNA as a PCR template. […] PCR was done in a T100 Thermal Cycler (Bio-Rad) using the KAPA2G Robust PCR Kit (Peqlab, 07-KK5532-03) with supplied buffer B and 3 μl of cell extract in a total volume of 25 μl. The thermal cycling profile of the PCR was: 95° C.

[3] = tested on: H9 hESCs; experiment: Genome editing of LYPLA1 and SCAP by Cas9n double nicking in H9 hESCs-iCRISPR; type: cell-based, human; conditions: M3814 for three days
Excerpt: Genome editing efficiencies of the LYPLA1 and SCAP gene in H9 hESCs-iCRISPR Cas9 nickase (Cas9n) double nicking and treatment with M3814 for three days and with DNA-PKcs K3753R cells are shown. HDR, mix (HDR with indels), NHEJ (non-homologous end joining), and MMEJ (microhomology-mediated end joining with at least two bp of microhomology) are indicated in green, light green, light blue, and light purple, respectively.
We recently created an iCRISPR-Cas9n line from human induced pluripotent stem cells (hiPSCs) (409-B2, Riken BioResource Center) and human embryonic stem cells (hESCs) (H9) as described by Gonzalez et al. Stem cells were grown on Matrigel Matrix (Corning, 35248) in mTeSR1 medium (StemCell Technologies, 05851) with supplement (StemCell Technologies, 05852) that was replaced daily. K562 cells (ECACC, 89121407) were grown with IMDM (ThermoFisher, 12440053) supplemented with 10% FBS. Cells were grown at 37° C. in a humidified incubator gassed with 5% CO2. Media was replaced every second day for non-pluripotent cell lines. Cell cultures were maintained 4-6 days until ~80% confluency, and subcultured at a 1:6 to 1:10 dilution. Adherent cells were dissociated using EDTA (VWR, 437012C). […]
The recombinant A.s. […] Cells were counted using the Countess Automated Cell Counter (Invitrogen). […]

[4] = tested on: 409B2 hiPSCs; experiment: Genome editing of FRMD7 with Cas9 protein in 409B2 hiPSCs; type: cell-based, human; conditions: 2 μM, Cas9 induced DSB
Excerpt: FIG. 5: Comparison of the effect of DNA-PK inhibitors on genome editing efficiency. Editing efficiencies of FRMD7 with Cas9 protein and treatment with different concentrations of M3814, NU7026, and NU7441 are shown for K562 cells (A) and 409B2 hiPSCs (B). HDR, mix (HDR with indels), NHEJ, and MMEJ are indicated in green, light green, light blue and light purple, respectively. Error bars show the SEM of three replicates. A skull indicates excessive cell death of up to around 80% determined by phase contrast light microscopy.
We recently created an iCRISPR-Cas9n line from human induced pluripotent stem cells (hiPSCs) (409-B2, Riken BioResource Center) and human embryonic stem cells (hESCs) (H9) as described by Gonzalez et al. Stem cells were grown on Matrigel Matrix (Corning, 35248) in mTeSR1 medium (StemCell Technologies, 05851) with supplement (StemCell Technologies, 05852) that was replaced daily. K562 cells (ECACC, 89121407) were grown with IMDM (ThermoFisher, 12440053) supplemented with 10% FBS. Cells were grown at 37° C. in a humidified incubator gassed with 5% CO2. Media was replaced every second day for non-pluripotent cell lines. Cell cultures were maintained 4-6 days until ~80% confluency, and subcultured at a 1:6 to 1:10 dilution. Adherent cells were dissociated using EDTA (VWR, 437012C). The media was supplemented with 10 μM Rho-associated protein kinase (ROCK) inhibitor Y-27632 (Calbiochem, 688000) after cell splitting for one day in order to increase cell survival.
The recombinant A.s. Cpf1 and S.p. Cas9 protein and electroporation enhancer was ordered from IDT (Coralville, USA) and nucleofection was done using the manufacturer's protocol, except for the following alterations. […] Cells were counted using the Countess Automated Cell Counter (Invitrogen). […]

[5] = tested on: K562 cells; experiment: Resazurin assay for cell survival three days after editing; type: cell-based, human
Excerpt: FIG. 2: Cell survival of human immortalized myelogenous leukemia cells K562 cells after treatment with the small molecule M3814. Results of a resazurin assay for cell survival three days after editing are shown. Resazurin is converted into fluorescent resorfin by cellular dehydrogenases and resulting fluorescence (Excitation: 530-570 nm, Emission: 590-620 nm) is a marker for the amount of living cells. Resorfin fluorescence (610±30 nm) of cells without any treatment is set to 100% cell survival. Error bars show the SEM of three technical replicates for three technical replicates.
Cells were either seeded with or without editing reagents. The media was supplemented with or without M3814 and each condition was carried out in duplicate. After 72 h media was aspirated and 100 μl fresh media together with 10 μl resazurin solution (Cell Signaling, 11884) was added. Resazurin is converted into fluorescent resorfin by cellular dehydrogenases and resulting fluorescence (Excitation: 530-570 nm, Emission: 590-620 nm) is considered as a linear marker for cell viability (O'Brien et al. 2000). Cells were incubated with resazurin at 37° C. The redox reaction was measured every hour by fluorescence readings using a Typhoon 9410 imager (Amersham Biosciences). […] Duplicate wells with media and resazurin, but without cells, were used a blank.

[6] = tested on: mouse embryos; conditions: cited from earlier work
[7] = tested on: human stem cells; conditions: cited from earlier work
[8] = tested on: precise genome editing (PGE); conditions: SCR7 and L755507 added together with RS-1; cited from earlier work
[9] = tested on: HEK293A cells; conditions: cited from earlier work
[10] = target: human LIG4 (Homo sapiens, UniProt P49917); conditions: Greco et al. 2016; cited from earlier work
Chain of human LIG4 (P49917 whole entry): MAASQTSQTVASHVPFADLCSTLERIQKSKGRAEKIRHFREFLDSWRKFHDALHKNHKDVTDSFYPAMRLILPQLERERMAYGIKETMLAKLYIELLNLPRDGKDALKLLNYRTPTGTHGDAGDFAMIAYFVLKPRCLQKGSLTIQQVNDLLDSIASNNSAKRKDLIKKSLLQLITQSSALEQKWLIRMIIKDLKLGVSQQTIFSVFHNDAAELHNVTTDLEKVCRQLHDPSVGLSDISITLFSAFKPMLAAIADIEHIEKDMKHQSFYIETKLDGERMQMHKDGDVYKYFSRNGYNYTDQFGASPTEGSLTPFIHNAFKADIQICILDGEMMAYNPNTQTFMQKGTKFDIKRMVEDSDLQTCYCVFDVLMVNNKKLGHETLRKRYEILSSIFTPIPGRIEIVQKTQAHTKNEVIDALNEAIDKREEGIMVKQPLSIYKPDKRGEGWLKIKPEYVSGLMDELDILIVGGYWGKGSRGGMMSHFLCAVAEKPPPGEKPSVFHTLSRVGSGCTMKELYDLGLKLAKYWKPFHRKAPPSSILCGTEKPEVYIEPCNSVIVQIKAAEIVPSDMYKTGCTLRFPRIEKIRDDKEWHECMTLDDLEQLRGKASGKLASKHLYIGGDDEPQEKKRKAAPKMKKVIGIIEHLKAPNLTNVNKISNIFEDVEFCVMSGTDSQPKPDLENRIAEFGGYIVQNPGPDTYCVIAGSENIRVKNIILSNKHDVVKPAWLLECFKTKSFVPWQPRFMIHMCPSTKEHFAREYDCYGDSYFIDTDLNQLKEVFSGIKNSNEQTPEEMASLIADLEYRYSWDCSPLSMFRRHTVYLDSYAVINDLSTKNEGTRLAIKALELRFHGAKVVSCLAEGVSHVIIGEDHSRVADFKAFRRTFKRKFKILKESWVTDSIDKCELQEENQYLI
Chain of human LIG4 (Q13426 whole entry partner): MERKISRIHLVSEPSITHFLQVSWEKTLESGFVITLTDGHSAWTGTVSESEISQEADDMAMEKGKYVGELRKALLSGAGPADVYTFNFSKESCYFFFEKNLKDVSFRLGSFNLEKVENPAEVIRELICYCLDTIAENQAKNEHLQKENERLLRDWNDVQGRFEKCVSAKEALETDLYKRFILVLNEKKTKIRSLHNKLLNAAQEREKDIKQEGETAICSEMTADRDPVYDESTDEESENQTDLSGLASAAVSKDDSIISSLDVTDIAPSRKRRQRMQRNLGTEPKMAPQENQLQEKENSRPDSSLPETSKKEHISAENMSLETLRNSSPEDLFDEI

[11] = tested on: rabbit embryos; conditions: cited from earlier work
[12] = tested on: polymerase theta (PoIQ); experiment: Genome editing efficiency with PoIQ (MMEJ) inhibition in cells with DNA-PKcs KR mutation; type: cell-based, human; conditions: cells with DNA-PKcs KR mutation (NHEJ inhibited)
Experimental: FIG. 6: Inhibition of polymerase theta (PoIQ) dependent microhomology mediated end-joining (MMEJ) can further increase HDR if the target of interest is prone to MMEJ repair. All cells have inhibited NHEJ due to the DNA-PKcs KR mutation, which can be transiently achieved by M3814 in wildtype cells as well. Shown are genome editing efficiencies. Cells were treated with different amounts of siRNA against PoIQ (Dharmacon ON-TARGET plus Human POLQ (10721) siRNA-SMART pool), single nicking of the first exon of PolQ, a combination of the SMART pool and coding strand nicking, and siRNA against PoIQ binding the mRNA at the sequence corresponding to amino acid 765 of PolQ. A cell line with both DNA-PKcs KR and PoIQ knockout mutation is shown for comparison. HDR, mix (HDR with indels), NHEJ, and estimated MMEJ (at least 2 bp microhomology) are indicated in green, light green, light blue, and light purple, respectively. Error bars show the SEM of at least two replicates.
For some targets HDR is increased but a substantial portion of genome editing events however still consists of indels. These are due to the microhomology mediated end-joining (MMEJ) pathway (also referred to as alternative NHEJ) which can compete with NHEJ and serves as a back-up pathway which relies on short stretches of microhomology at the cleavage site. […]

NC(Cc1cc(O)c(O)cc1O)C(=O)O (centres unmarked) [6-hydroxy-depa, 6-hydroxy-dopa]
HDR, combined NHEJ/MMEJ/SSA inhibition [1]: drastic HDR increase

NC(=O)c1ncn([C@@H]2O[C@H](COP(=O)(O)O)[C@@H](O)[C@H]2O)c1N [AICAR, AICA ribonucleotide 5′-monophosphate]
HDR, combined NHEJ/MMEJ/SSA inhibition [1]: drastic HDR increase

COc1ccc([C@@H](O)c2cc(-c3ncnc4cc(N5CCOCC5)ccc34)c(F)cc2Cl)nn1 [M3814, Nedisertib]
HDR, combined NHEJ/MMEJ/SSA inhibition [1]: drastic HDR increase
precise genome editing / HDR efficiency ([2]; K562 cells expressing wild-type DNA-PKcs, FRMD7, Cas9, transient M3814 treatment (three days), 18% without M3814): 81%
HDR-increasing effect / precise genome editing efficiency, comparison of DNA-PKcs inhibitors [2]: stronger HDR-increasing effect than treatment with NU7026 and NU7441
HDR efficiencies compared with DNA-PKcs K3753R mutation [3]: comparable to what is achievable by total inactivation of the DNA-PKcs catalytic active site
HDR efficiencies [4]: strongly increased HDR efficiencies
toxicity (cell survival, resazurin assay) [5]: moderate toxicity

O=c1cc(N2CCOCC2)oc2c1ccc1ccccc12 [NU7026]
HDR-increasing effect / precise genome editing efficiency, comparison of DNA-PKcs inhibitors [2]: significantly less precise genome editing efficiency
HDR efficiencies [4]: much lower efficiencies

O=c1cc(N2CCOCC2)oc2c(-c3cccc4c3sc3ccccc34)cccc12 [NU7441]
HDR-increasing effect / precise genome editing efficiency, comparison of DNA-PKcs inhibitors [2]: significantly less precise genome editing efficiency
HDR efficiencies [4]: much lower efficiencies

O=c1[nH]c(=S)[nH]c(N=Cc2ccccc2)c1N=Cc1ccccc1 [SCR7]
efficiency of PGE ([6]; from 5% without SCR7 (Maruyama et al. 2015)): 22.7%
effect on PGE ([6]; other researchers): no significant effect
effect on PGE [7]: no significant effect
effect on PGE when added together with RS-1, compared to RS-1 alone [8]: no additive effect
effect on PGE [9]: marginal but significant increase
inhibitory properties on human LIG4 [10]: neither selective nor potent inhibitors
effect on PGE [11]: no significant effect

siRNA aa765: siRNA binding PoIQ mRNA before the sequence corresponding to the first RAD51 binding domain (SEQ ID NO: 63) (TTGGAAAATACTGTAATCATCCCTGCA; listed as DNA, chemistry not given here)
HDR and indels with MMEJ signature, siRNA alone [12]: high HDR
